Assay results from US20150218516A1, “COMPOSITIONS AND METHODS FOR ENHANCING IMMUNE RESPONSES MEDIATED BY ANTIGEN-PRESENTING CELLS” (The Board of Regents of the University of Nebraska, priority 2007, published 2015).
Entries after “also recorded” stand apart in the source; their conditions may differ. Non-standard residues stand in square brackets, D forms with d. Residues, ends and D or L forms follow the SMILES beside them.

Legend:
[1] = system: SKmel-28; test: In vitro cytotoxicity of T lymphocytes cultured with peptide-pulsed dendritic cells against SKmel-28; assay type: cell-based, human; conditions: UCB or PBMC derived T lymphocytes cultured with dendritic cells exposed to the peptide
Procedure: (§1) The tumor peptide antigen tyrosinase is expressed on more than 70% of human melanoma cells that are human leukocyte antigen (HLA) A2 positive. […] The dendritic cells, presumably expressing the tyrosinase epitope, were then cultured with a lymphocyte-enriched cell population which was then cultured with melanoma cells to determine melanoma cell killing using a cytotoxic T lymphocyte assay.

[2] = system: LNCaP cells
Procedure: An exemplary in vitro cytotoxicity assay comprises the following steps. Antigen presenting cells, such as dendritic cells, were obtained from bone marrow or blood. Dendritic cells were preferentially differentiated in culture through the addition of IL-4, GM-CSF, and TNFα for 7-10 days. Dendritic cells were then pulsed with peptides for 18 hours. MNCs were also isolated from spleens or blood (e.g., cord or peripheral) and cultured in IL-2 and GM-CSF for 7-10 days for enhanced lymphocyte proliferation. The pulsed dendritic cells were then co-cultured with the lymphocyte-enriched MNCs at a 1:10 ratio for 4 days. Lymphocyte-enriched MNC effector cells were then co-cultured with tumor target cells labeled with the bioactive fluorescent dye Calcein AM for 4 hours. Lysed cells were detected by photometrically measuring the released fluorescent dye.
Certain prostate carcinomas express prostate-specific membrane antigen (PSMA). […] The fusion peptides were administered to APCs which were subsequently presented to a lymphocyte-enriched population from cord blood as described hereinabove in Example 6. After antigen presentation by pulsed DC in co-culture, CTLs were tested for their ability to lyse three different target cell monolayers in an in vitro cytotoxicity assay. […] The fusion peptides were also administered to APCs which were subsequently presented to a adult peripheral blood-derived CTLs. In vitro cytotoxicity against the human prostate cancer cell line LNCaP was then assessed using the bioactive fluorescent dye calcein AM (FIG. 11D).

[3] = system: A-375 cell line (melanoma); assay type: cell-based, human
Procedure: as §1

[4] = system: P815S (HBsAg transfectant) target cells; test: HBsAg-specific CTL response of immunized mice, 51Cr-release cytotoxicity assay; assay type: in vivo, BALB/c mice; conditions: for % Specific Lysis: s.c. in PBS
Procedure: (§2) Groups of six to eight BALB/c mice were given bilateral s.c. injections in the inguinal area with (100 al each side) of a PBS solution containing 50-100 μg of the peptides. Booster injections were given s.c. in the inguinal region at 21-day intervals. Sera for Ab analysis were obtained by retro-orbital bleeds of mice under CO2 narcosis.
Three weeks after secondary) (2° immunization and two weeks after tertiary)(3° immunization, two to three mice from each experimental group were sacrificed by cervical dislocation and their spleens removed aseptically. Pooled splenic single-cell suspensions were prepared in RPMI-1640 medium (Sigma, St. Louis, Mo.) containing 10% FBS (Hyclone, Salt Lake City, Utah) and the following supplements: 10 mM HEPES buffer, 50 μM 2-ME, 2 mM L-glutamine, 50 μg/ml gentamicin sulfate, 100 Um′ penicillin, and 50 μg/ml streptomycin (all supplements from Sigma). This supplemented complete medium is designated RP10-SC. For culture, 75×10^6 pooled spleen cells in 5 ml of RP10-SC were pipetted into a 25 cm^2 T-flask (Corning). Next, 5 ml of RP 10-SC containing 150 nM of synthetic, L^d MHC class I-restricted peptide, […] (SEQ ID NO:12) were added to the flask. The flasks were incubated undisturbed in an upright position at 37° C. in 5% CO2. After 4 days of incubation, the cells were recovered from the T-flasks, washed once by centrifugation in fresh RP10-SC, resuspended in 5 ml RP10-SC, counted, and adjusted to 5×10^6 viable cells/ml.
The specific cell target used for measuring CTL activity was P815S, a transfectant cell line of P815 (H-2^d) expressing the HBsAg (14). P815S was grown in RP10-SC medium containing 400 μg/ml geneticin disulfate (G418, Sigma). The parental H-2^d mastocytoma cell line, P815 (ATTC #TIB64) grown in RP10-SC medium, was used as a non-specific target for CTL assays to measure % non-specific lysis.
The target cells, either P815S or P815, were washed 2 times in RP10-SC. For labeling, 5×10^6 target cells were mixed with 250 μCi ^51Cr-sodium chromate[400-1200 Ci (14.8-44.4 TBq)]/[…]; NEN Dupont, Boston, Mass.) in a 1.0 ml volume in a 50 ml conical tube and incubated in a 37° C. water bath for 90 mins. After incubation, the labeled cells were washed 3 times by centrifugation using 15 ml volumes of fresh RP10-SC and allowed to stand at room temperature for 30 mins. The pelleted cells were resuspended in RP10-SC at 1×10^6 cells/ml.
The recovered splenic effector cells at 5×10^6 cells/ml were serially diluted in triplicate in wells of round-bottom 96 well plates (Corning, 25850) in a total volume of 100 al/well and using RP10-SC as the diluent. Next, 100 μl volumes of ^51Cr-labeled targets, P815S or P815, at 1×10^6 cells/ml were added to the wells. Maximum release (MR) wells contained 100 al of target cells and 100 al of 2% (v/v) Tween 20 while spontaneous release (SR) wells contained labeled cells in medium alone. Effector-to-target ratios of 50:1, 25:1, 12.5:1, and 6.25:1 were routinely employed. The plates were centrifuged at 400×g and incubated at 37° C. in 5% CO2 for 4 hrs. After incubation, the supernatant fractions in the wells were collected using a Skatron Supernatant Collection System (Skatron Instruments, Sterlin, Va.). The amount of ^51Cr radioactivity in the supernatant fractions was measured using a Wallac 1470 Wizard gamma counter (Turku, Finland).

[5] = system: human umbilical artery; test: Smooth muscle contraction of human umbilical artery; assay type: cell-based
Procedure: (§3) Statistical analysis of the values obtained from pharmacologic assays was performed using one-way analysis of variance (ANOVA).

[6] = system: human PMNs; test: MPO release from human PMNs; assay type: cell-based
Procedure: as §3

[7] = system: immunizing peptide and free peptides; test: ELISA of sera from mice immunized with HBsAg CTL epitope-C5a agonist constructs; assay type: in vivo; conditions: sera after three injections
Procedure: as §2
Thus, it was of interest to determine whether sera from mice immunized with the control peptides and epitope-C5a agonist constructs contained Ab directed against any of the peptides. […] (SEQ ID NO:12), […]

[8] = system: Caki-1 cells; test: In vitro cytotoxicity of T lymphocytes cultured with peptide-pulsed dendritic cells against Caki-1; assay type: cell-based, human; conditions: cord blood-derived T lymphocytes cultured with dendritic cells exposed to the peptide

YMNGTMSQV [tyrosinase antigen]
cytotoxicity against SKmel-28 (in words) [1]: minimal cytotoxicity | cytotoxicity against LNCaP (in words) [2]: did not exhibit significant cytotoxicity | cytotoxicity against A-375 (in words) [3]: minimal cytotoxicity

CC[C@H](C)[C@H](N)C(=O)N1CCC[C@H]1C(=O)N[C@@H](CCC(N)=O)C(=O)N[C@@H](CO)C(=O)N[C@@H](CC(C)C)C(=O)N[C@@H](CC(=O)O)C(=O)N[C@@H](CO)C(=O)N[C@@H](Cc1c[nH]c2ccccc12)C(=O)N[C@@H](Cc1c[nH]c2ccccc12)C(=O)N[C@H](C(=O)N[C@@H](CO)C(=O)N[C@@H](CC(C)C)C(=O)N[C@@H](CCCNC(=N)N)C(=O)N[C@@H](CCCNC(=N)N)C(=O)N[C@@H](Cc1ccc(O)cc1)C(=O)N[C@@H](CO)C(=O)N[C@@H](Cc1ccccc1)C(=O)N[C@@H](CCCCN)C(=O)N1CCC[C@H]1C(=O)N[C@@H](CCSC)C(=O)N1CCC[C@H]1C(=O)N[C@@H](CC(C)C)C(=O)N[C@H](C)C(=O)N[C@@H](CCCNC(=N)N)C(=O)O)[C@@H](C)O (H-IPQSLDSWWTSLRRYSFKPMPL[dA]R-OH)
% Specific Lysis ([4]; Effector:Target 6.25:1, boost day 21, spleen cells day 42): 9% | % Specific Lysis ([4]; Effector:Target 12.5:1, boost day 21, spleen cells day 42): 14% | % Specific Lysis ([4]; Effector:Target 25:1, boost day 21, spleen cells day 42): 23% | % Specific Lysis ([4]; Effector:Target 50:1, boost day 21, spleen cells day 42, restimulated 4 days with S28-39): 32% | Ag-specific CTL response (in words) ([4]; two or three s.c. injections at 21 day intervals, no added adjuvant): significant CTL response; also recorded: generated an Ag-specific CTL response; also recorded: robust CTL activity | EC50 ([5]; concentration resulting in 50% maximum contraction): 161 nM | agonist behaviour relative to natural C5a (in words) ([5]; umbilical artery contraction and MPO release assays): full agonists | pD2 ± SE ([5]; −log EC50 (M), mean ± SE, n=3): 6.79 ± 0.31 | EC50 ([6]; 50% maximum release of myeloperoxidase): 540 nM | pD2 ± SE ([6]; −log EC50 (M), mean ± SE, n=3): 6.27 ± 0.29 | serum binding to free peptides […] or YSFKPMPLaR [7]: did not bind

CSCC[C@H](NC(=O)[C@H](CC(=O)O)NC(=O)[C@H](CCCCN)NC(=O)[C@H](Cc1ccccc1)NC(=O)[C@H](CO)NC(=O)[C@@H](N)Cc1ccc(O)cc1)C(=O)N1CCC[C@H]1C(=O)N(C)[C@@H](CC(C)C)C(=O)N[C@H](C)C(=O)N[C@@H](CCCNC(=N)N)C(=O)O [YSFKDMP(MeL)aR]
cytotoxicity against tyrosinase-negative Caki-1 (in words) [8]: incapable of killing
